Reference: ChEMBL document CHEMBL4364348, “Divalent cannabinoid-1 receptor ligands: A linker attachment point survey of SR141716A for development of high-affinity CB1R molecular probes” (Bioorg Med Chem Lett, 2019)

What was measured:
Cannabinoid receptor 1 [1] = molecular target: T1, Cannabinoid receptor 1 (Homo sapiens, UniProt P21554); assay: Displacement of [3H]CP55940 from human CB1R in HEK293 cell membranes at 10 uM after 60 mins liquid scintillation analysis relative to control
D(2) dopamine receptor = D(2) dopamine receptor (Homo sapiens, UniProt P14416); assay: Binding affinity to human D2R
D(2) dopamine receptor, sequence (P14416 whole entry): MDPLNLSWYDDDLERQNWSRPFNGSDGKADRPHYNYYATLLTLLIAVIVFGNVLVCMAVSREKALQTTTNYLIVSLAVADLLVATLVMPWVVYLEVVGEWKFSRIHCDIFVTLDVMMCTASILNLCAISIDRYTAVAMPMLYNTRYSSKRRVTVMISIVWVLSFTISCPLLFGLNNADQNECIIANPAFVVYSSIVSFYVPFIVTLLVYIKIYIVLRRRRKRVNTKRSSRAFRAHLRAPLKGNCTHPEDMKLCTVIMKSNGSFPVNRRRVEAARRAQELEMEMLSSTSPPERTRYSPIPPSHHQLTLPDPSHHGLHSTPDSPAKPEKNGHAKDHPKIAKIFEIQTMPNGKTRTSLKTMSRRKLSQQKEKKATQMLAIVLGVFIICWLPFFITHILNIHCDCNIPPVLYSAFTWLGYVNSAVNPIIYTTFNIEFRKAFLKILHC

Cannabinoid receptor 1 [2] = molecular target: T1, Cannabinoid receptor 1; assay: Displacement of [3H]CP55940 from human CB1R in HEK293 cell membranes after 60 mins liquid scintillation analysis

T1 sequence (P21554 whole entry): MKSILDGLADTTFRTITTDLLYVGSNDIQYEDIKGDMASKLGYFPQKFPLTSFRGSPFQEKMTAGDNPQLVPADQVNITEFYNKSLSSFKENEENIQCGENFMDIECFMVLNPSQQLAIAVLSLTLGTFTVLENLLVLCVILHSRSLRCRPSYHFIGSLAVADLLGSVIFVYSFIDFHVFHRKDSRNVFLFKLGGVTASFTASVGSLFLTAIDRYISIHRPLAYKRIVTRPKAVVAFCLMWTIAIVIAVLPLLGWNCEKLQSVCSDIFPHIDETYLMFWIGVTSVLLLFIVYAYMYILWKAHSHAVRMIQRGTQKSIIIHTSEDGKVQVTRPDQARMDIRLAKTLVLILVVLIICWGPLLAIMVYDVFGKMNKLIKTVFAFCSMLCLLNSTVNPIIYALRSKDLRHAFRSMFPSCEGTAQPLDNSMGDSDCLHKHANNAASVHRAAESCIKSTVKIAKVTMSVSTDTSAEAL

SMILES	inhibition (Cannabinoid receptor 1 [1])	Ki (D(2) dopamine receptor)	Ki (Cannabinoid receptor 1 [2])
CNC(=O)CCCCCn1nc(C(=O)NN2CCCCC2)c(C)c1-c1ccc(Cl)cc1	3%	–	–
Cc1c(C(=O)NCCCCCCCCCCC(=O)O)nn(-c2ccc(Cl)cc2Cl)c1-c1ccc(Cl)cc1	43%	–	–
CC(=O)NCCCCCC(=O)NCc1ccc(C(=O)NCCCCCC(=O)NCCCCCC(=O)NCc2ccc(C(=O)NCCCCCC(=O)NCCCCCCNC(=O)c3nn(-c4ccc(Cl)cc4Cl)c(-c4ccc(Cl)cc4)c3C)cc2)cc1	0%	–	–
COC(=O)CCCCCCCCCCNC(=O)c1nn(-c2ccc(Cl)cc2Cl)c(-c2ccc(Cl)cc2)c1C	5%	–	–
CCCN(CCc1ccc(NC(=O)CCC(=O)NCCOCCOCC(=O)NCCCC[C@H](NC(C)=O)C(=O)NCCCC[C@H](NC(C)=O)C(=O)NCCCCCCNC(=O)c2nn(-c3ccc(Cl)cc3Cl)c(-c3ccc(Cl)cc3)c2C)cc1)C1CCc2c(O)cccc2C1 (some centres undefined)	44%	2.4 nM	–
CNC(=O)c1ccc(-c2ccc(-c3c(C)c(C(=O)NN4CCCCC4)nn3-c3ccc(Cl)cc3Cl)cc2)cc1	55%	–	–
Cc1c(C(=O)NN2CCCCC2)nn(-c2ccc(Cl)cc2Cl)c1-c1ccc(C#CCCOC(=O)CCCCCCCCCCN)cc1	87%	–	97 nM
CC(=O)NCCOCCOCC(=O)NCCCC[C@H](NC(C)=O)C(=O)NCCCC[C@H](NC(C)=O)C(=O)NCCCCCCNC(=O)c1nn(-c2ccc(Cl)cc2Cl)c(-c2ccc(Cl)cc2)c1C	37%	–	–
CC(=O)NCCCC[C@H](NC(C)=O)C(=O)NCCCC[C@H](NC(C)=O)C(=O)NCCCCCCNC(=O)c1nn(-c2ccc(Cl)cc2Cl)c(-c2ccc(Cl)cc2)c1C	41%	–	–
CC(=O)N[C@@H](CCCCNC(=O)COCCOCCNC(=O)COCCOCCNC(=O)c1nn(-c2ccc(Cl)cc2Cl)c(-c2ccc(Cl)cc2)c1C)C(=O)NCCCC[C@H](NC(C)=O)C(=O)NCCCCCCNC(=O)c1nn(-c2ccc(Cl)cc2Cl)c(-c2ccc(Cl)cc2)c1C	29%	–	–
Cc1c(C(=O)NCCCCCCNC(=O)CCCCCNC(=O)c2ccc(CNC(=O)CCCCCNC(=O)CCCCCNC(=O)c3ccc(CNC(=O)CCCCCNC(=O)c4nn(-c5ccc(Cl)cc5Cl)c(-c5ccc(Cl)cc5)c4C)cc3)cc2)nn(-c2ccc(Cl)cc2Cl)c1-c1ccc(Cl)cc1	0%	–	–
CCCN(CCc1ccc(NC(=O)CCC(=O)NCCCC[C@H](NC(C)=O)C(=O)NCCCC[C@H](NC(C)=O)C(=O)NCCCCCCNC(=O)c2nn(-c3ccc(Cl)cc3Cl)c(-c3ccc(Cl)cc3)c2C)cc1)C1CCc2c(O)cccc2C1 (some centres undefined)	62%	0.84 nM	–
Cc1c(C(=O)NN2CCCCC2)nn(CCCCCC(=O)OC(C)(C)C)c1-c1ccc(Cl)cc1	37%	–	–
Cc1c(C(=O)NN2CCCCC2)nn(CCCCCC(=O)O)c1-c1ccc(Cl)cc1	10%	–	–
COC(=O)CCCCCCCCCCNC(=O)CCCCCn1nc(C(=O)NN2CCCCC2)c(C)c1-c1ccc(Cl)cc1	13%	–	–
Cc1c(C(=O)NN2CCCCC2)nn(-c2ccc(Cl)cc2Cl)c1-c1ccc(C#CCCOC(=O)CCCCCNC(=O)OC(C)(C)C)cc1	79%	–	106 nM
CCCN(CCc1ccc(NC(=O)CCC(=O)NCCOCCOCC(=O)NCCOCCOCC(=O)NCCCC[C@H](NC(C)=O)C(=O)NCCCC[C@H](NC(C)=O)C(=O)NCCCCCCNC(=O)c2nn(-c3ccc(Cl)cc3Cl)c(-c3ccc(Cl)cc3)c2C)cc1)C1CCc2c(O)cccc2C1 (some centres undefined)	33%	1.1 nM	–
Cc1c(C(=O)NN2CCCCC2)nn(-c2ccc(Cl)cc2Cl)c1-c1ccc(C#CCCOCCCCCC(=O)OC(C)(C)C)cc1	97%	–	45 nM
CC(=O)NCCOCCOCC(=O)NCCOCCOCC(=O)NCCCC[C@H](NC(C)=O)C(=O)NCCCC[C@H](NC(C)=O)C(=O)NCCCCCCNC(=O)c1nn(-c2ccc(Cl)cc2Cl)c(-c2ccc(Cl)cc2)c1C	23%	–	–

SMILES	inhibition (Cannabinoid receptor 1 [1])	Ki (D(2) dopamine receptor)	Ki (Cannabinoid receptor 1 [2])
CC(=O)N[C@@H](CCCCNC(=O)c1nn(-c2ccc(Cl)cc2Cl)c(-c2ccc(Cl)cc2)c1C)C(=O)NCCCC[C@H](NC(C)=O)C(=O)NCCCCCCNC(=O)c1nn(-c2ccc(Cl)cc2Cl)c(-c2ccc(Cl)cc2)c1C	11%	–	–
CCCN(CCc1ccc(NC(=O)CCC(=O)NCCCCCC(=O)NCc2ccc(C(=O)NCCCCCC(=O)NCCCCCCNC(=O)c3nn(-c4ccc(Cl)cc4Cl)c(-c4ccc(Cl)cc4)c3C)cc2)cc1)C1CCc2c(O)cccc2C1 (centres undefined)	33%	2.2 nM	–
Cc1c(C(=O)NN2CCCCC2)nn(CCCCCC(=O)NCCCCCC(=O)O)c1-c1ccc(Cl)cc1	13%	–	–
COC(=O)CCCCCNC(=O)c1ccc(-c2ccc(-c3c(C)c(C(=O)NN4CCCCC4)nn3-c3ccc(Cl)cc3Cl)cc2)cc1	49%	–	–
Cc1c(C(=O)NN2CCCCC2)nn(-c2ccc(Cl)cc2Cl)c1-c1ccc(C#CCCOC(=O)CCCCCN)cc1	59%	–	1810 nM
CCCN(CCc1ccc(NC(=O)CCC(=O)NCCCCCC(=O)NCc2ccc(C(=O)NCCCCCC(=O)NCCCCCC(=O)NCc3ccc(C(=O)NCCCCCC(=O)NCCCCCCNC(=O)c4nn(-c5ccc(Cl)cc5Cl)c(-c5ccc(Cl)cc5)c4C)cc3)cc2)cc1)C1CCc2c(O)cccc2C1 (centres undefined)	0%	4.2 nM	–
CC(=O)N[C@@H](CCCCNC(=O)COCCOCCNC(=O)c1nn(-c2ccc(Cl)cc2Cl)c(-c2ccc(Cl)cc2)c1C)C(=O)NCCCC[C@H](NC(C)=O)C(=O)NCCCCCCNC(=O)c1nn(-c2ccc(Cl)cc2Cl)c(-c2ccc(Cl)cc2)c1C	23%	–	–
COC(=O)c1ccc(-c2ccc(-c3c(C)c(C(=O)NN4CCCCC4)nn3-c3ccc(Cl)cc3Cl)cc2)cc1	–	–	131 nM
Cc1c(C(=O)NN2CCCCC2)nn(-c2ccc(Cl)cc2Cl)c1-c1ccc(C#CCCOC(=O)CCCCCCCCCCNC(=S)Nc2ccc3c(c2)C(=O)OC32c3ccc(O)cc3Oc3cc(O)ccc32)cc1	–	–	2110 nM
COC(=O)CCCCCCCCCCNC(=O)c1ccc(-c2ccc(-c3c(C)c(C(=O)NN4CCCCC4)nn3-c3ccc(Cl)cc3Cl)cc2)cc1	0%	–	–
Cc1c(C(=O)NCCCCCCNC(=O)CCCCCNC(=O)c2ccc(CNC(=O)CCCCCNC(=O)c3nn(-c4ccc(Cl)cc4Cl)c(-c4ccc(Cl)cc4)c3C)cc2)nn(-c2ccc(Cl)cc2Cl)c1-c1ccc(Cl)cc1	29%	–	–
Cc1c(C(=O)NN2CCCCC2)nn(-c2ccc(Cl)cc2Cl)c1-c1ccc(C#CCCO)cc1	98%	–	180 nM
Cc1c(C(=O)NN2CCCCC2)nn(-c2ccc(Cl)cc2Cl)c1-c1ccc(C#CCCOC(=O)CCCCCNC(=S)Nc2ccc3c(c2)C(=O)OC32c3ccc(O)cc3Oc3cc(O)ccc32)cc1	–	–	260 nM
CCOC(=O)c1ccc(CNC(=O)c2nn(-c3ccc(Cl)cc3Cl)c(-c3ccc(Cl)cc3)c2C)cc1	–	–	8.2 nM
COC(=O)CCCCCNC(=O)c1nn(-c2ccc(Cl)cc2Cl)c(-c2ccc(Cl)cc2)c1C	–	–	13 nM
CC(=O)NCCCCCC(=O)NCc1ccc(C(=O)NCCCCCC(=O)NCCCCCCNC(=O)c2nn(-c3ccc(Cl)cc3Cl)c(-c3ccc(Cl)cc3)c2C)cc1	23%	–	–
CC(=O)OCCC#Cc1ccc(-c2c(C)c(C(=O)NN3CCCCC3)nn2-c2ccc(Cl)cc2Cl)cc1	100%	–	11 nM
COC(=O)CCCCCNC(=O)CCCCCn1nc(C(=O)NN2CCCCC2)c(C)c1-c1ccc(Cl)cc1	33%	–	–
Cc1c(C(=O)NN2CCCCC2)nn(-c2ccc(Cl)cc2Cl)c1-c1ccc(-c2ccc(C(=O)O)cc2)cc1	66%	–	–
